In patent EP1366052B1 (priority 2001, dated 2002):
“Also recorded” adds a separate entry of the source.

Assays:
male Sprague-Dawley rats = conditions: rat, in vivo
weanling pigs = conditions: pig, in vivo
Sprague-Dawley rats = conditions: rat, in vivo

CC1=C[C@H]2O[C@@H]3[C@H](O)C[C@](C)([C@@]2(CO)[C@H](O)C1=O)[C@]31CO1 [DON, 3α,7α,15-trihydroxy-12,13-epoxy-trichothec-9-en-8-one]
food consumption (male Sprague-Dawley rats): decrease | food consumption and weight gain (male Sprague-Dawley rats): immediate and sustained reduction; also recorded: concentration-dependant reduction | weight gain (male Sprague-Dawley rats): decrease | emesis (weanling pigs): some emesis | food consumption in the AM meal following the AM treat (weanling pigs): decreased food consumption | persistence of the effect on food consumption (weanling pigs): wore off by the next meal | induction of fed pattern of gut motility (Sprague-Dawley rats): induced the fed pattern

C[C@@H]1C[C@H]2O[C@@H]3[C@H](O)C[C@](C)([C@]24COC(c2ccccc2)O[C@@H]4[C@@H]1O)[C@@]3(C)O (stereo partly drawn) [EN139502, 7α,15-benzylidene-9α,12β-dimethyltrichothecan-3α,8α,12α-triol]
delay before effect on the fasting pattern (Sprague-Dawley rats): approximately 5 min | effect on fasting pattern of gut motility (Sprague-Dawley rats): intensify or enhance the fasting pattern | induction of fed pattern of gut motility (Sprague-Dawley rats): did not induce the fed pattern

C[C@@H]1C[C@H]2O[C@@H]3[C@H](O)C[C@](C)([C@]24COC(c2ccccc2)O[C@@H]4C1=O)[C@@]3(C)O (stereo partly drawn) [EN139522, 7α,15-benzylidene-9α,12β-dimethyl-3α,12α-dihydroxytrichothecan-8-one]
duration of action (Sprague-Dawley rats): 35 min | induction of fed pattern of gut motility (Sprague-Dawley rats): induce a classic fed pattern | onset time after administration (Sprague-Dawley rats): 20 s
